Experimental data published in US11241436B2, “Autophagy inducers for treatment of CNS conditions” (Northwestern University, priority 2017, dated 2022).
Like-named read-outs stand apart in the source and are kept apart here.

Tests used:
[1] = tested on: Beclin 2-GASP1 interaction; assay: Coimmunoprecipitation of endogenous GASP1 with Flag-human Beclin 2 in HEK293 cells; format: cell-based; details: 3 h
Excerpt: Based on this model, the effect of these inducers on the Beclin 2-GASP1 interaction in vitro and in mouse brain were subsequently examined.

[2] = mouse

Structure (SMILES) | coimmunoprecipitation of endogenous GASP1 by Beclin 2 [1] | percentage bound by plasma protein ([2]; 10 μg/ml) | percentage bound by plasma protein ([2]; 50 μg/ml) [%] | percentage bound by plasma protein ([2]; 100 μg/ml) [%]
N=c1c2c(-c3ccccc3)c(-c3ccccc3)n(Cc3ccccc3)c2ncn1[C@H]1CC[C@H](O)CC1 [ML246] | potently blocked | – | – | –
CC(C)=CCC[C@](C)(O)[C@H]1CC[C@]2(C)[C@@H]1[C@H](O)C[C@@H]1[C@@]3(C)CC[C@H](O)C(C)(C)[C@@H]3[C@@H](O[C@@H]3O[C@H](CO)[C@@H](O)[C@H](O)[C@H]3O[C@@H]3O[C@@H](C)[C@H](O)[C@@H](O)[C@H]3O)C[C@]12C [Rg2, ginsenoside Rg2] | – | approximately 42% | ~24 | ~15
